Data from PMC12683216, “Using High‐Throughput Screening to Identify Crosslinking Peptides That Control Cell‐Mediated Matrix Degradation” (Advanced Healthcare Materials, 2025).
Where a SMILES comes first, the peptide text is derived from it. [ ]: non-standard residue; d: D form. βAla = NCCC(=O)O

Key:
Assay type in all cases: in vitro ADME, human
Details in all cases: human, 24 h, LC-MS
[1] = Soluble peptide degradation, Cells condition (LC-MS)
Protocol: (§1) Most in vitro protease activity assays incubate the peptides or proteins of interest with a single protease in a buffered solution. However, the kinetics of protease activity in tissues are complex and highly regulated, and both the activity^[ [37] ^] and substrate specificity^[ [38] ^] of proteases can be modulated through association with other proteins.^[ [39] ^] Most MMP‐substrate peptides are also cleaved by multiple proteases,^[ [5] ^] and within the context of biomaterials, the most important factor is typically how the combined activity of all proteases, rather than the activity of any specific protease, modifies the local microenvironment versus the activity due to any individual enzyme. We synthesized peptides identified in the TAILS proteomic screen that were present on proteins that are known to be secreted or found on the cell membrane, pooled them, and added them either to cell culture media on top of cells, the “Cells” condition, or conditioned media lacking cells, the “Media” condition (Figure 2A). The fraction of peptides remaining after 24 h in each condition was then quantified using LC‐MS. Soluble proteases should be present in both conditions, however, membrane‐type proteases should primarily be found in the samples containing cells and not the conditioned media samples. A key benefit of this approach is that it surveys the total functional proteolytic activity, including the effects of inhibitors and co‐factors, and quantifies the degradation rate of soluble peptides by the complete secretome of different cell types.
(§2) hUVECs (75000 per well) or hMSCs (36000 per well) were seeded into a 48 well plate, and 500 µL media was added to the wells. […] The peptide libraries were dissolved at a stock solution of 10 mM total peptide content. For libraries containing 38 peptides, 95 µL of the stock solution was added to each well; for libraries with 19 peptides, 47.5 µL was added to each well, and media was taken at 0 and 24 h. Add 4 µL of acetic acid to all collected media in the LC‐MS plates and store them in a −80 °C freezer to prevent further proteolytic degradation. From each sample, 10 µL of crude solution was introduced by the LC‐MS through a Thermo Scientific Vanquish LC System (Thermo Fisher Scientific), which outputted to a Thermo Scientific LTQ XL Linear Ion Trap Mass Spectrometer (Thermo Fisher Scientific). The sampled mixture was trapped on a column (ProntoSIL C18 AQ, 120 Å, 3 µm, 2.0 x 50 mm HPLC Column, PN 0502F184PS030, MAC‐MOD Analytical Inc.). The samples were loaded onto the column with a solvent containing acetonitrile/water, 5:95 (v/v) containing 1% acetic acid at a flow rate of 300 µL min^−1 and held for 1 min. The sample was then eluted from the column with a linear gradient of 5–40% Solvent B (1% acetic acid in acetonitrile) at the same flow rate for 5 min. This was followed by a 1 min ramp up to 100% Solvent B, where it was re‐equilibrated with Solvent A (1% acetic acid) to 5% solvent B over the course of 1 min and held there for 2 min. The column temperature was kept at a constant 29 °C, and the mass spectrometer was operated in positive ion mode. Using a Heated ESI, the Source Voltage was set to 4.1 kV, and the capillary temperature was 350 °C. For non‐library degradation studies, 2.5 µL of 10 mM peptide stock solution for each peptide was added.
In the MMP‐14 inhibitor study, the MMP‐14 inhibitor NSC 405 020 (Cayman Chemical Company) was dissolved in DMSO to make a 10 mM stock solution and stored in −20 °C freezer. 0.5 µL MMP‐14 inhibitor stock solution was added to each well to achieve a 10 µM final concentration.
For all degradation studies using soluble peptides, a non‐proteolytically degradable NH2‐βFβAβAβAβAβAβA‐amide (βFβA6) peptide, where βF is β‐phenylalanine and βA is β‐alanine, was added at a 50 µM concentration and used as an internal standard. Peptide degradation ratios were measured by LC‐MS and analyzed by Xcalibur. […]

[2] = Soluble peptide degradation, Media condition (cell-conditioned media, LC-MS)
Protocol: as §1, §2
(§3) To assess the activity of the conditioned media, the media were divided into two equal portions. One portion was used for a standard degradation study, while the other was cultured for an additional 24 h before the PanMMP and KLVADLMASAE were added. After 24 h of incubation, the media were collected for further analysis. To assess the impact of recombinant MMP‐14 on PanMMP and KLVADLMASAE, recombinant MMP‐14 (antibodies.com) was dissolved in the media at a concentration of 0.5 nM. The remaining steps followed the standard degradation study protocol. […]

[3] = as above; remark: listed apart in the source
Protocol: as §1, §2, §3

[4] = hMSCs in culture with fresh media (Cells condition), Figure 2B heatmap, pooled TAILS-derived soluble peptides (Ac-βAla N-terminus, βAla-amide C-terminus) in media on hMSCs (36000 per well, 48 well plate, 500 µL), ratio to βFβA6 internal standard, 24 h / 0 h, N = 5, read-out: Fraction of peptide remaining at 24 hours: hMSC Cells
[5] = hUVECs in culture with fresh media (Cells condition), Figure 2B heatmap, pooled TAILS-derived soluble peptides in media on hUVECs (75000 per well, 48 well plate, 500 µL), ratio to βFβA6 internal standard, 24 h / 0 h, N = 5, read-out: Fraction of peptide remaining at 24 hours: hUVEC Cells
[6] = Figure 2B heatmap, pooled TAILS-derived soluble peptides in 24 h hMSC-conditioned media without cells, ratio to βFβA6 internal standard, 24 h / 0 h, N = 5, read-out: Fraction of peptide remaining at 24 hours: hMSC Media
[7] = Figure 2B heatmap, pooled TAILS-derived soluble peptides in 24 h hUVEC-conditioned media without cells, ratio to βFβA6 internal standard, 24 h / 0 h, N = 5, read-out: Fraction of peptide remaining at 24 hours: hUVEC Media
[8] = hMSCs in culture with fresh media (Cells condition), Figure 3B heatmap, split-and-pool libraries KLVADX1X2ASAE (19 or 38 peptides per library) in media on hMSCs, ratio to βFβA6, N = 2, read-out: Fraction of peptide remaining after 24 hours: hMSC Cells
[9] = hUVECs in culture with fresh media (Cells condition), Figure 3B heatmap, split-and-pool libraries KLVADX1X2ASAE in media on hUVECs, ratio to βFβA6, N = 2, read-out: Fraction of peptide remaining after 24 hours: hUVEC Cells
[10] = hMSC-conditioned media without cells (Media condition), Figure 3B heatmap, split-and-pool libraries KLVADX1X2ASAE in hMSC-conditioned media without cells, ratio to βFβA6, N = 2, read-out: Fraction of peptide remaining after 24 hours: hMSC Media
[11] = hUVEC-conditioned media without cells (Media condition), Figure 3B heatmap, split-and-pool libraries KLVADX1X2ASAE in hUVEC-conditioned media without cells, ratio to βFβA6, N = 2, read-out: Fraction of peptide remaining after 24 hours: hUVEC Media

remaining at 24 h [1, 4] [%] | remaining at 24 h [1, 5] [%] | remaining at 24 h [2, 6] [%] | remaining at 24 h [3, 7] [%] | remaining at 24 h [1, 8] [%] | remaining at 24 h [1, 9] [%] | remaining at 24 h [2, 10] [%] | remaining at 24 h [3, 11] [%] | Compound
75 | 73 | 94 | 74 |  |  |  |  | CC[C@H](C)[C@H](NC(=O)[C@@H](NC(=O)[C@H](CCSC)NC(=O)[C@@H]1CCCN1C(=O)[C@H](CCCCN)NC(=O)[C@H](CCCCN)NC(=O)CCNC(C)=O)[C@@H](C)O)C(=O)N[C@@H](C)C(=O)N[C@@H](CCCNC(=N)N)C(=O)N[C@@H](CC(C)C)C(=O)N[C@@H](CC(N)=O)C(=O)N[C@@H](C)C(=O)N[C@@H](CCCCN)C(=O)N[C@@H](CCCCN)C(=O)NCCC(N)=O [KKPMTIARLNAKK] (Ac-[βAla]KKPMTIARLNAKK[βAla]-NH2)
 |  |  |  | 41 | 91 | 73 | 97 | CC(=O)NCCC(=O)N[C@@H](CCCCN)C(=O)N[C@@H](CC(C)C)C(=O)N[C@H](C(=O)N[C@@H](C)C(=O)N[C@@H](CC(=O)O)C(=O)N[C@@H](CC(C)C)C(=O)N[C@@H](CC(C)C)C(=O)N[C@@H](C)C(=O)N[C@@H](CO)C(=O)N[C@@H](C)C(=O)N[C@@H](CCC(=O)O)C(=O)NCCC(N)=O)C(C)C [Leu-Leu] (Ac-[βAla]KLVADLLASAE[βAla]-NH2)
 |  |  |  | 38 | 88 | 61 | 97 | CSCC[C@H](NC(=O)[C@H](CC(=O)O)NC(=O)[C@H](C)NC(=O)[C@@H](NC(=O)[C@H](CC(C)C)NC(=O)[C@H](CCCCN)NC(=O)CCNC(C)=O)C(C)C)C(=O)N[C@@H](C)C(=O)N[C@@H](C)C(=O)N[C@@H](CO)C(=O)N[C@@H](C)C(=O)N[C@@H](CCC(=O)O)C(=O)NCCC(N)=O [Met-Ala] (Ac-[βAla]KLVADMAASAE[βAla]-NH2)
73 |  | 92 | 99 |  |  |  |  | CC[C@H](C)[C@H](NC(=O)[C@H](Cc1c[nH]cn1)NC(=O)[C@H](CCC(=O)O)NC(=O)[C@@H]1CCCN1C(=O)[C@H](Cc1ccccc1)NC(=O)[C@H](CC(N)=O)NC(=O)CCNC(C)=O)C(=O)N[C@@H](Cc1ccccc1)C(=O)N1CCC[C@H]1C(=O)N[C@@H](C)C(=O)N[C@@H](CC(C)C)C(=O)N[C@@H](C)C(=O)NCCC(N)=O [NFPEHIFPALA] (Ac-[βAla]NFPEHIFPALA[βAla]-NH2)
100 | 103 | 87 | 104 |  |  |  |  | CC(=O)NCCC(=O)N1CCC[C@H]1C(=O)N1CCC[C@H]1C(=O)N[C@@H](CO)C(=O)N[C@@H](CCCNC(=N)N)C(=O)N[C@@H](Cc1c[nH]cn1)C(=O)N[C@@H](CC(=O)O)C(=O)N[C@H](C(=O)NCC(=O)N[C@H](C(=O)N1CCC[C@H]1C(=O)NCCC(N)=O)[C@@H](C)O)[C@@H](C)O [PPSRHDTGTP] (Ac-[βAla]PPSRHDTGTP[βAla]-NH2)

Second part, the molecule before the results:

Compound | remaining at 24 h [1, 4] [%] | remaining at 24 h [1, 5] [%] | remaining at 24 h [2, 6] [%] | remaining at 24 h [3, 7] [%] | remaining at 24 h [1, 8] [%] | remaining at 24 h [1, 9] [%] | remaining at 24 h [2, 10] [%] | remaining at 24 h [3, 11] [%]
CC(=O)NCCC(=O)N[C@@H](CCCCN)C(=O)N[C@@H](C)C(=O)N1CCC[C@H]1C(=O)NCC(=O)NCC(=O)N[C@@H](CCCCN)C(=O)N[C@@H](C)C(=O)N[C@@H](C)C(=O)NCC(=O)N1CCC[C@H]1C(=O)N[C@@H](C)C(=O)NCCC(N)=O [KAPGGKAAGPA] (Ac-[βAla]KAPGGKAAGPA[βAla]-NH2) | 78 | 71 | 95 | 88 |  |  |  | 
CC(=O)NCCC(=O)N[C@@H](CC(C)C)C(=O)N[C@@H](C)C(=O)N[C@@H](CC(C)C)C(=O)N[C@@H](CCC(=O)O)C(=O)N[C@@H](C)C(=O)N[C@@H](CCCNC(=N)N)C(=O)N[C@H](C(=O)N[C@H](C(=O)N[C@@H](CC(=O)O)C(=O)N[C@@H](CC(C)C)C(=O)NCCC(N)=O)[C@@H](C)O)[C@@H](C)O [LALEARTTDL] (Ac-[βAla]LALEARTTDL[βAla]-NH2) | 68 | 94 | 86 | 104 |  |  |  | 
CC(=O)NCCC(=O)N[C@@H](CCCCN)C(=O)N[C@@H](CC(C)C)C(=O)N[C@H](C(=O)N[C@@H](C)C(=O)N[C@@H](CC(=O)O)C(=O)N[C@@H](CC(C)C)C(=O)N[C@@H](Cc1c[nH]c2ccccc12)C(=O)N[C@@H](C)C(=O)N[C@@H](CO)C(=O)N[C@@H](C)C(=O)N[C@@H](CCC(=O)O)C(=O)NCCC(N)=O)C(C)C [Leu-Trp] (Ac-[βAla]KLVADLWASAE[βAla]-NH2) |  |  |  |  | 37 | 91 | 62 | 98
CSCC[C@H](NC(=O)[C@H](CC(=O)O)NC(=O)[C@H](C)NC(=O)[C@@H](NC(=O)[C@H](CC(C)C)NC(=O)[C@H](CCCCN)NC(=O)CCNC(C)=O)C(C)C)C(=O)N[C@@H](Cc1c[nH]cn1)C(=O)N[C@@H](C)C(=O)N[C@@H](CO)C(=O)N[C@@H](C)C(=O)N[C@@H](CCC(=O)O)C(=O)NCCC(N)=O [Met-His] (Ac-[βAla]KLVADMHASAE[βAla]-NH2) |  |  |  |  | 46 | 90 | 74 | 100
CC[C@H](C)[C@H](NC(=O)[C@H](CCCCN)NC(=O)[C@@H](NC(=O)[C@H](CO)NC(=O)[C@H](CO)NC(=O)[C@@H]1CCCN1C(=O)CCNC(C)=O)[C@@H](C)CC)C(=O)N[C@@H](CCCCN)C(=O)N[C@@H](CO)C(=O)N[C@@H](C)C(=O)N[C@@H](CC(=O)O)C(=O)N[C@@H](CCCCN)C(=O)NCCC(N)=O [PSSIKIKSADK] (Ac-[βAla]PSSIKIKSADK[βAla]-NH2) | 81 | 86 | 90 | 93 |  |  |  | 
